Assay results published in patent US20230398178A1, “METHODS AND COMPOSITIONS FOR TREATING OR PREVENTING A VAGINAL INFECTION OF GARDNERELLA VAGINALIS” (Massachusetts Institute of Technology, priority 2022, published 2023).
Entries after “also recorded” stand apart in the source; their conditions may differ.

Tests used:
[1] = test system: Gardnerella vaginalis mature biofilms; test: Minimum biofilm eradication assay with metronidazole; type: cell-based; conditions: 0.2 wt % monosaccharide with metronidazole concentration series, established biofilms, 24 h
Method: Mature biofilms of Gardnerella vaginalis were established as described above. On a separate plate serial dilution of metronidazole alone or in combination with 0.2 wt % Gal/D-Fuc were prepared in NYC III 1% Glc medium. Negative controls (no metronidazole) were also included on the plate. After spent supernatant was drained from mature biofilms, 100 μL, of metronidazole/metronidazole-monosaccharide or negative controls solutions were added to the biofilms and plate was rocked (100 rpm) for 24 h in the anaerobic atmosphere (generated with AnaeroPack, Mitsubishi in the airtight container) in the 37° C. incubator. After 24 h incubation, the CFUs of supernatant and biofilm fractions were quantified as described in the biofilm disruption experiment.

G. vaginalis 14018 [2] = test: Total growth of G. vaginalis 14018 (CFU assay); type: cell-based, Gardnerella vaginalis; conditions: for effect on total growth, in words: G. vaginalis 14018, NYCIII media (contains 1% glucose), soluble additive; for effect on growth in media without glucose, in words: G. vaginalis 14018, NYCIII media without glucose (data not shown); for suppression of growth: G. vaginalis 14018, glucose-rich NYCIII media, 0.2 wt % soluble monosaccharide
[3] = test system: Gardnerella vaginalis 49145; test: Biofilm formation of G. vaginalis 49145 (CFU assay); type: cell-based
[4] = test system: Gardnerella vaginalis 49145; test: Total growth of G. vaginalis 49145 (CFU assay); type: cell-based; conditions: G. vaginalis 49145, glucose-rich media
G. vaginalis 14018 [5] = test: Biofilm formation of G. vaginalis 14018 in polystyrene plates (CFU assay); type: cell-based, Gardnerella vaginalis; conditions: for effect on (proportional) biofilm formation, in words: G. vaginalis 14018, 24 hour biofilms, NYCIII media; for reduction of biofilm formation: G. vaginalis 14018, NYCIII media, anaerobic, 24 h, 0.2 wt %
[6] = test system: Gardnerella vaginalis ATCC 14018 mature biofilms; test: Disruption of established G. vaginalis biofilms (CFU of biofilm and supernatant fractions); type: cell-based; conditions: for viable cell counts in supernatant / biofilm fractions, in words: pre-established 24 h biofilms, 24 h treatment
Method: Gardnerella vaginalis 14018 ATCC strain was obtained from ATCC. Salivary MUC5B mucin was isolated and purified as described previously. Galactose and D-Fucose were obtained from Sigma-Aldrich. AnaeroPacks were purchased from VWR. Prior to the experiment, MUC5B mucin was weighed out and solubilized to desired concentration on a shaker overnight. To establish mature biofilms, an overnight preculture of Gardnerella vaginalis ATCC 14018 was diluted 1:20 into fresh NYC III medium with 1% glucose and incubated at 37° C. in the anaerobic chamber for 24 h. Before adding fresh solutions, a set of triplicate wells was sacrificed to quantify cell counts in supernatant and biofilm fraction at the 24 h timepoint. The spent supernatant was gently drained from the rest of the wells and fresh medium or mucin/monosaccharide solutions in medium were added on top of the bacterial biomass. Plate was gently rocked (100 rpm) for 24 h in the anaerobic atmosphere (generated with AnaeroPack, Mitsubishi in the airtight container) in the 37° C. incubator. After 24 h, the supernatant was removed into a separate plate and the biofilms were washed twice with […], sterile phosphate-buffer saline (PBS) and washes were combined with the supernatant (=supernatant fraction). Another […], of PBS was added to the biofilms, each well was vigorously scraped with P20 tip for 20 s and scraped biomass pipetted up and down to homogenize the solution (=biofilm fraction). Both supernatant and biofilm solutions were serially diluted, plated on BHI-agar (BHI=brain-heart infusion, 1.5% agar) and incubated in the anaerobic chamber 37° C. incubator. Colonies were counted after ˜48 h.

Molecule: C[C@@H](O)[C@H](O)[C@H](O)[C@@H](O)C=O [D-fucose, 6-deoxy-D-galactose]
- effect in combination with metronidazole on biofilm eradication, in words ([1]; listed as D-Fuc): synergistic effect
- effect in combination with metronidazole on biofilm eradication, in words ([1]; listed as D-Fucose): potentiate the action of antibiotic metronidazole
- effect on total growth, in words (G. vaginalis 14018 [2]): limited G. vaginalis growth in glucose-rich media; also recorded: reduced the overall growth
- effect on growth in media without glucose, in words (G. vaginalis 14018 [2]): did not diminish
- suppression of growth (G. vaginalis 14018 [2]): 75%
- effect on biofilm formation, in words [3]: reduction of biofilm formation
- effect on total growth, in words [4]: suppressed the growth
- effect on (proportional) biofilm formation, in words (G. vaginalis 14018 [5]): inhibit biofilm formation
- effect on (proportional) biofilm formation, in words (G. vaginalis 14018 [5]; listed as D-Fuc): significantly reduced proportional biofilm formation
- reduction of biofilm formation (G. vaginalis 14018 [5]): 72%
- viable cell counts in supernatant / biofilm fractions, in words [6]: reduction in viable cells in both biofilm and supernatant fractions

Molecule: CC(=O)N[C@H]1C(O)O[C@H](CO)[C@H](O)[C@@H]1O (stereo partly drawn) [GalNAc, N-acetyl D-galactosamine, reference compound]
- effect on total growth, in words (G. vaginalis 14018 [2]): have no effect
- effect on (proportional) biofilm formation, in words (G. vaginalis 14018 [5]): only galactose was able to reduce proportional biofilm formation

Molecule: CC(=O)N[C@H]1C(O)O[C@H](CO)[C@@H](O)[C@@H]1O (stereo partly drawn) [GlcNAc, N-acetyl D-glucosamine, reference compound]
- effect on total growth, in words (G. vaginalis 14018 [2]): have no effect
- effect on (proportional) biofilm formation, in words (G. vaginalis 14018 [5]): only galactose was able to reduce proportional biofilm formation

Molecule: C[C@H](O)[C@@H](O)[C@@H](O)[C@H](O)C=O [L-Fuc, L-fucose, reference compound]
- effect on (proportional) biofilm formation, in words (G. vaginalis 14018 [5]): only galactose was able to reduce proportional biofilm formation

Molecule: CC(=O)N[C@H]1[C@H]([C@H](O)[C@H](O)CO)OC(O)(C(=O)O)C[C@@H]1O (stereo partly drawn) [NeuNAc, N-acetyl D-neuraminic acid, reference compound]
- effect on (proportional) biofilm formation, in words (G. vaginalis 14018 [5]): only galactose was able to reduce proportional biofilm formation

Molecule: O=C[C@H](O)[C@@H](O)[C@@H](O)[C@H](O)CO [galactose, D-galactose]
- effect in combination with metronidazole on biofilm eradication, in words [1]: potentiate the action of antibiotic metronidazole
- effect in combination with metronidazole on biofilm eradication, in words ([1]; listed as Gal): synergistic effect
- effect on total growth, in words (G. vaginalis 14018 [2]): limited G. vaginalis growth in glucose-rich media; also recorded: reduced the overall growth
- effect on growth in media without glucose, in words (G. vaginalis 14018 [2]): did not diminish
- suppression of growth (G. vaginalis 14018 [2]): 90%
- effect on biofilm formation, in words [3]: reduction of biofilm formation
- effect on (proportional) biofilm formation, in words (G. vaginalis 14018 [5]): inhibit biofilm formation; also recorded: significantly reduced proportional biofilm formation
- reduction of biofilm formation (G. vaginalis 14018 [5]): 85%
- viable cell counts in supernatant / biofilm fractions, in words [6]: reduction in viable cells in both biofilm and supernatant fractions

Molecule: MUC5B: mucin glycoprotein, predominant in cervicovaginal fluid, purified from pooled human saliva and reconstituted into gels
- effect on total growth, in words (G. vaginalis 14018 [2]): did not limit the growth of the bacteria; also recorded: did not have any detrimental impact
- effect on biofilm formation, in words [3]: reduction of biofilm formation
- effect on (proportional) biofilm formation, in words (G. vaginalis 14018 [5]): limited its biofilm formation, toxin production, and killing of endocervical cells; also recorded: reduces relative biofilm formation
- effect on (proportional) biofilm formation, in words (G. vaginalis 14018 [5]; listed as mucin): inhibit biofilm formation
- reduction of biofilm formation (G. vaginalis 14018 [5]): 76%
- viable cell counts in supernatant / biofilm fractions, in words [6]: increase in the cell counts in the supernatant
- disruption of established biofilms, in words ([6]; pre-established biofilms): disrupt established biofilms
